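In this assay, cells in 96-well plates receive the compound at five concentrations for 48 hours. Endpoints are linearly interpolated between the surrounding concentrations. At the GI50, growth is halved. TGI: concentration producing complete growth inhibition.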
Assays:
Experiment in all cases: inhibition of tumour cell growth, NCI panel, 48 h
EKVX NSCLC = tested on: EKVX NSCLC
HOP-62 NSCLC = tested on: HOP-62 NSCLC
SN12C renal = tested on: SN12C renal
NCI-H226 lung = tested on: NCI-H226 lung
UO-31 renal = tested on: UO-31 renal
SNB-75 CNS = tested on: SNB-75 CNS
HOP-92 NSCLC = tested on: HOP-92 NSCLC
MALME-3M melanoma = tested on: MALME-3M melanoma
M14 melanoma = tested on: M14 melanoma
SNB-19 CNS = tested on: SNB-19 CNS
TK-10 renal = tested on: TK-10 renal
UACC-257 melanoma = tested on: UACC-257 melanoma
CCRF-CEM leukemia = tested on: CCRF-CEM leukemia
COLO 205 colon = tested on: COLO 205 colon
MCF7 breast = tested on: MCF7 breast
K-562 leukemia = tested on: K-562 leukemia
SF-268 CNS = tested on: SF-268 CNS
KM12 colon = tested on: KM12 colon
HCT-116 colon = tested on: HCT-116 colon
HL-60(TB) leukemia = tested on: HL-60(TB) leukemia
RPMI-8226 leukemia = tested on: RPMI-8226 leukemia
SK-MEL-2 melanoma = tested on: SK-MEL-2 melanoma
SF-539 CNS = tested on: SF-539 CNS
NCI-H23 lung = tested on: NCI-H23 lung
HT29 colon = tested on: HT29 colon
A549 NSCLC = tested on: A549 NSCLC
HCC-2998 colon = tested on: HCC-2998 colon
MOLT-4 leukemia = tested on: MOLT-4 leukemia
T-47D breast = tested on: T-47D breast
IGROV1 ovarian = tested on: IGROV1 ovarian
SW-620 colon = tested on: SW-620 colon
CAKI-1 renal = tested on: CAKI-1 renal
MDA-MB-435 = tested on: MDA-MB-435
SK-MEL-28 melanoma = tested on: SK-MEL-28 melanoma
786-0 renal = tested on: 786-0 renal
OVCAR-8 ovarian = tested on: OVCAR-8 ovarian
SK-OV-3 ovarian = tested on: SK-OV-3 ovarian
LOX IMVI melanoma = tested on: LOX IMVI melanoma
OVCAR-4 ovarian = tested on: OVCAR-4 ovarian
SK-MEL-5 melanoma = tested on: SK-MEL-5 melanoma
HS 578T breast = tested on: HS 578T breast
MDA-N = tested on: MDA-N
ACHN renal = tested on: ACHN renal
NCI-H522 lung = tested on: NCI-H522 lung
OVCAR-3 ovarian = tested on: OVCAR-3 ovarian
SF-295 CNS = tested on: SF-295 CNS
MDA-MB-231 breast = tested on: MDA-MB-231 breast
OVCAR-5 ovarian = tested on: OVCAR-5 ovarian
NCI-H460 lung = tested on: NCI-H460 lung
A498 renal = tested on: A498 renal
PC-3 prostate = tested on: PC-3 prostate
NCI/ADR-RES ovarian = tested on: NCI/ADR-RES ovarian
RXF 393 renal = tested on: RXF 393 renal
U251 CNS = tested on: U251 CNS
DU-145 prostate = tested on: DU-145 prostate
HCT-15 colon = tested on: HCT-15 colon
BT-549 breast = tested on: BT-549 breast

Compound `Cc1cc2c3c([n+](C)c4ccc(F)cc4c3c1)-c1cc(F)ccc1N2C` has a GI50 (EKVX NSCLC) of 62.4 µM, a TGI (EKVX NSCLC) greater than 100 µM and a GI50 (HOP-62 NSCLC) of 9.84 µM. It also gave a TGI (HOP-62 NSCLC) greater than 100 µM, a GI50 (SN12C renal) of 2.34 µM and a TGI (SN12C renal) of 23.5 µM. It also gave a GI50 (NCI-H226 lung) of 3.41 µM, a TGI (NCI-H226 lung) of 57.3 µM and a GI50 (UO-31 renal) greater than 100 µM. For the same compound, the TGI (UO-31 renal) was greater than 100 µM, the GI50 (SNB-75 CNS) was 11 µM and the TGI (SNB-75 CNS) was 41.5 µM. The GI50 (HOP-92 NSCLC) was 16.4 µM, the TGI (HOP-92 NSCLC) was 46 µM and the GI50 (MALME-3M melanoma) was 4.19 µM. The TGI (MALME-3M melanoma) was 17.2 µM, the GI50 (M14 melanoma) was 23.4 µM and the TGI (M14 melanoma) was 62.9 µM. For the same compound, the GI50 (SNB-19 CNS) was 4.13 µM, the TGI (SNB-19 CNS) was greater than 100 µM and the GI50 (TK-10 renal) was 51.8 µM. It also gave a TGI (TK-10 renal) greater than 100 µM, a GI50 (UACC-257 melanoma) of 6.2 µM and a TGI (UACC-257 melanoma) of 30.5 µM. It also gave a GI50 (CCRF-CEM leukemia) of 7.17 µM, a TGI (CCRF-CEM leukemia) greater than 100 µM and a GI50 (COLO 205 colon) of 3.5 µM. The TGI (COLO 205 colon) was 16.3 µM, the GI50 (MCF7 breast) was 14.3 µM and the TGI (MCF7 breast) was 44.6 µM. The GI50 (K-562 leukemia) was 4.74 µM, the TGI (K-562 leukemia) was greater than 100 µM and the GI50 (SF-268 CNS) was 2.42 µM. For the same compound, the TGI (SF-268 CNS) was 14.8 µM, the GI50 (KM12 colon) was 4.81 µM and the TGI (KM12 colon) was 44.1 µM. The GI50 (HCT-116 colon) was 19.9 µM, the TGI (HCT-116 colon) was greater than 100 µM and the GI50 (HL-60(TB) leukemia) was 25.4 µM. For the same compound, the TGI (HL-60(TB) leukemia) was greater than 100 µM, the GI50 (RPMI-8226 leukemia) was 5.13 µM and the TGI (RPMI-8226 leukemia) was 36.4 µM. For the same compound, the GI50 (SK-MEL-2 melanoma) was 10.9 µM, the TGI (SK-MEL-2 melanoma) was 28.6 µM and the GI50 (SF-539 CNS) was 3.28 µM. It also gave a TGI (SF-539 CNS) of 20.6 µM, a GI50 (NCI-H23 lung) of 9.46 µM and a TGI (NCI-H23 lung) of 68.6 µM. It also gave a GI50 (HT29 colon) of 33.2 µM, a TGI (HT29 colon) greater than 100 µM and a GI50 (A549 NSCLC) of 43.5 µM. For the same compound, the TGI (A549 NSCLC) was greater than 100 µM, the GI50 (HCC-2998 colon) was 3.99 µM and the TGI (HCC-2998 colon) was 16.5 µM. For the same compound, the GI50 (MOLT-4 leukemia) was 3.28 µM, the TGI (MOLT-4 leukemia) was greater than 100 µM and the GI50 (T-47D breast) was 2.85 µM. The TGI (T-47D breast) was 84 µM, the GI50 (IGROV1 ovarian) was 19.9 µM and the TGI (IGROV1 ovarian) was greater than 100 µM. The GI50 (SW-620 colon) was 13.5 µM, the TGI (SW-620 colon) was greater than 100 µM and the GI50 (CAKI-1 renal) was greater than 100 µM. It also gave a TGI (CAKI-1 renal) greater than 100 µM, a GI50 (MDA-MB-435) of 13.7 µM and a TGI (MDA-MB-435) of 55 µM. It also gave a GI50 (SK-MEL-28 melanoma) of 9.77 µM, a TGI (SK-MEL-28 melanoma) of 34.9 µM and a GI50 (786-0 renal) of 6.24 µM. The TGI (786-0 renal) was greater than 100 µM, the GI50 (OVCAR-8 ovarian) was 15.2 µM and the TGI (OVCAR-8 ovarian) was greater than 100 µM. For the same compound, the GI50 (SK-OV-3 ovarian) was 64.7 µM, the TGI (SK-OV-3 ovarian) was greater than 100 µM and the GI50 (LOX IMVI melanoma) was 20.7 µM. For the same compound, the TGI (LOX IMVI melanoma) was 68.6 µM, the GI50 (OVCAR-4 ovarian) was 22.1 µM and the TGI (OVCAR-4 ovarian) was greater than 100 µM. For the same compound, the GI50 (SK-MEL-5 melanoma) was 5.29 µM, the TGI (SK-MEL-5 melanoma) was 22.1 µM and the GI50 (HS 578T breast) was 2.4 µM. The TGI (HS 578T breast) was 9.77 µM, the GI50 (MDA-N) was 14.3 µM and the TGI (MDA-N) was greater than 100 µM. For the same compound, the GI50 (ACHN renal) was 39.1 µM, the TGI (ACHN renal) was greater than 100 µM and the GI50 (NCI-H522 lung) was 6.86 µM. For the same compound, the TGI (NCI-H522 lung) was 29.4 µM, the GI50 (OVCAR-3 ovarian) was 12 µM and the TGI (OVCAR-3 ovarian) was 61.8 µM. It also gave a GI50 (SF-295 CNS) of 7.54 µM, a TGI (SF-295 CNS) greater than 100 µM and a GI50 (MDA-MB-231 breast) of 24.3 µM. The TGI (MDA-MB-231 breast) was 85.3 µM, the GI50 (OVCAR-5 ovarian) was greater than 100 µM and the TGI (OVCAR-5 ovarian) was greater than 100 µM. It also gave a GI50 (NCI-H460 lung) of 15.4 µM, a TGI (NCI-H460 lung) of 49.5 µM and a GI50 (A498 renal) greater than 100 µM. For the same compound, the TGI (A498 renal) was greater than 100 µM, the GI50 (PC-3 prostate) was 19.9 µM and the TGI (PC-3 prostate) was 77.7 µM. It also gave a GI50 (NCI/ADR-RES ovarian) greater than 100 µM, a TGI (NCI/ADR-RES ovarian) greater than 100 µM and a GI50 (RXF 393 renal) greater than 100 µM. The TGI (RXF 393 renal) was greater than 100 µM, the GI50 (U251 CNS) was 1.69 µM and the TGI (U251 CNS) was greater than 100 µM. It also gave a GI50 (DU-145 prostate) of 17.9 µM, a TGI (DU-145 prostate) greater than 100 µM and a GI50 (HCT-15 colon) greater than 100 µM. It also gave a TGI (HCT-15 colon) greater than 100 µM, a GI50 (BT-549 breast) of 4.63 µM and a TGI (BT-549 breast) of 33.9 µM.
